Data published in patent US20040138160A1, “Preventive/therapeutic method for cancer” (priority 2001, published 2004).

How the values were obtained:
HER2 = HER2 (Homo sapiens, UniProt P04626); assay: Suppression of receptor tyrosine-phosphorylation in human breast cancer cells (intracellular HER2 phosphorylation, MCF-7, heregulin stimulation); format: cell-based; set-up: endogenous in cells; host or cells: MCF-7; details: MCF-7 cells; test compound 2 hours, then heregulin 0.8 μg/ml 5 minutes; read-out: Intracellular HER2 phosphorylation inhibition MCF-7 (IC50:μM)
Description: Cell suspension of Human breast cancer cell line MCF-7 (500 μl), suspended at 300,000 cells/0.5 mL, was placed in a 24-well plate and cultured at 37° C. in a 5% carbon dioxide gas incubator. On the following day, 250 μl of a solution of 4-fold serially diluted test compound was added. After 2 hours, 250 μl of a heregulin solution, prepared to a final concentration of 0.8 μg/ml, was added. After 5 minutes, a buffer solution for lysis of extract solution was added to stop the reaction and to extract and yield a cell-lysate protein. After this cell-lysate protein was subjected to SDS-polyacrylamide gel electrophoresis to separate the protein, the protein in the gel was blotted onto a nylon filter. This filter was reacted with an anti-phosphotyrosine specific antibody; the portion containing phosphotyrosine on the filter was luminated using the ECL method to photosensitize an X-ray film. The amount of the film photosensitization was determined using an image analyzer.

[1] = system: human breast cancer cell line BT-474; assay: Inhibitory action on breast cancer cell line BT-474 proliferation in vitro (SRB); format: cell-based; details: heregulin 0.04 μg/ml, cultured 5 days, read-out: Inhibition of cell proliferation BT-474 (IC50:μM)
Description: Cell suspension of human breast cancer cell line BT-474 (100 μl) suspended at 1,000 cells/100 μl), was placed in a 96-well microwell plate and cultured at 37° C. in a 5% carbon dioxide gas incubator. On the following day, 100 μl of a solution of each test compound, previously diluted 2-fold with a heregulin solution prepared to a final concentration of 0.04 μg/ml, was added, and the cells were cultured for 5 days. After the culture medium containing the test compound was removed, the cells were washed and fixed with 5% trichloroacetic acid, after which a 0.4% (w/v) SRB solution (dissolved in 1% acetic acid) was added to fix and stain the cells (Skehan et al., Journal of the National Cancer Institute, Vol. 82, pp. 1107-1112, 1990). After the pigment solution was removed and the plate was washed with a 1% acetic acid solution, 100 μl of an extractant (10 mM Tris buffer solution) was added to extract and dissolve the pigment; absorbance was measured at an absorption wavelength of 550 nm to quantify the amount of cells as protein content. Taking as 100% the absorbance for the control group, which received no test compound solution, the ratio of the absorbance for each treatment group was determined, and the compound concentration required to achieve 50% suppression of the residual cell content relative to the control (IC50 value) was calculated.

Sequence of HER2 (P04626 23-1255): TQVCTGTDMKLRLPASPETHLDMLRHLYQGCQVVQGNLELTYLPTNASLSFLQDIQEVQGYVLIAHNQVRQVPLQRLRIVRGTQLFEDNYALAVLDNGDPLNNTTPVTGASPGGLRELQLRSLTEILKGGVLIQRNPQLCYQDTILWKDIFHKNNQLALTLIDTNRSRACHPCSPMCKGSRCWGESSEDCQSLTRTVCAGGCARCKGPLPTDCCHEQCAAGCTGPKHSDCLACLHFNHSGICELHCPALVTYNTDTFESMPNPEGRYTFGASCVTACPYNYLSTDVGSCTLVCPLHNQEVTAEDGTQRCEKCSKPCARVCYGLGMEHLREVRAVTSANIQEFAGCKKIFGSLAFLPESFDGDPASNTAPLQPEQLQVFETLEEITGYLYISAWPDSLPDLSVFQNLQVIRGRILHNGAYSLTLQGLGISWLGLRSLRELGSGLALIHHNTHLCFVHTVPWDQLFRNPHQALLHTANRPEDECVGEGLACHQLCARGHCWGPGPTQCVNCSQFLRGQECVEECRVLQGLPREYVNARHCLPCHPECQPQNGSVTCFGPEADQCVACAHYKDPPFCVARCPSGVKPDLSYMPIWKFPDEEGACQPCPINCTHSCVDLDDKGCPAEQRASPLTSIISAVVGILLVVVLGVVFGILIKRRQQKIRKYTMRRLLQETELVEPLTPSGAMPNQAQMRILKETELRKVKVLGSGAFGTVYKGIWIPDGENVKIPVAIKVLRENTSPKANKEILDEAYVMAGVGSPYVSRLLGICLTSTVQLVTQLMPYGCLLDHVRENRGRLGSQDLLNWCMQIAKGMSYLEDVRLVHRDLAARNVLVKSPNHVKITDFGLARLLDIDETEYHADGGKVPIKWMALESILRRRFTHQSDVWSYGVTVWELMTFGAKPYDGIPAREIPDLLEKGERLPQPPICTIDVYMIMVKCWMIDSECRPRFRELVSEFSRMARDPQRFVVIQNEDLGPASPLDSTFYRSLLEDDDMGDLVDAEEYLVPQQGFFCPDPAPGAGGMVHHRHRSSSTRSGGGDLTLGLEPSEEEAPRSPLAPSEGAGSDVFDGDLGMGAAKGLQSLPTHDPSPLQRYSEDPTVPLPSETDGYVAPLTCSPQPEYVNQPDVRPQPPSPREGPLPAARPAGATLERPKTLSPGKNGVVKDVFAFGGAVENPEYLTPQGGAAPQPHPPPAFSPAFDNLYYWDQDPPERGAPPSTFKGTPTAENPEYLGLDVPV

| melting point | IC50 (HER2) | IC50 [1] | Compound |
| --- | --- | --- | --- |
| 109 to 111 °C | – | – | Cc1cccc(/C=C/c2nc(COc3ccc(CCCCn4ccnc4CCO)cc3)co2)c1 [Compound B11, 2-[1-[4-[4-[[2-[(E)-2-(3-methylphenyl)ethenyl]-1,3-oxazol-4-yl]methoxy]phenyl]butyl]-1H-imidazol-2-yl]-1-ethanol] |
| 94 to 95 °C | – | – | CCc1ccc(/C=C/c2nc(COc3ccc(CCCCn4ccnc4CCO)cc3)co2)cc1 [Compound B13, 2-[1-[4-[4-[[2-[(E)-2-(4-ethylphenyl)ethenyl]-1,3-oxazol-4-yl]methoxy]phenyl]butyl]-1H-imidazol-2-yl]-1-ethanol] |
| 157 to 158 °C | – | – | FC(F)(F)c1ccc(/C=C/c2nc(COc3ccc(CCCn4ccnn4)cc3)co2)cc1 [Compound B5, 1-(3-{4-[(2-((E)-2-[4-(trifluoromethyl)phenyl]ethenyl)-1,3-oxazol-4-yl)methoxy]phenyl}propyl)-1H-1,2,3-triazole] |
| 115 to 117 °C | – | – | Fc1ccc(/C=C/c2nc(COc3ccc(CCCCn4ccnn4)cc3)co2)c(F)c1 [Compound B7, 1-{4-[4-({2-[(E)-2-(2,4-difluorophenyl)ethenyl]-1,3-oxazol-4-yl}methoxy)phenyl]butyl}-1H-1,2,3-triazole] |
| 91 to 93 °C | – | – | Cc1ccccc1/C=C/c1nc(COc2ccc(CCCCn3ccnc3CCO)cc2)co1 [Compound B12, 2-[1-[4-[4-[[2-[(E)-2-(2-methylphenyl)ethenyl]-1,3-oxazol-4-yl]methoxy]phenyl]butyl]-1H-imidazol-2-yl]-1-ethanol] |
| 108 to 109 °C | – | – | Cc1ccc(/C=C/c2nc(COc3ccc(CCCCn4ccnc4CCO)cc3)co2)cc1 [Compound B10, 2-[1-[4-[4-[[2-[(E)-2-(4-methylphenyl)ethenyl]-1,3-oxazol-4-yl]methoxy]phenyl]butyl]-1H-imidazol-2-yl]-1-ethanol] |
| 114 to 116 °C | – | – | OCC(O)Cc1nccn1CCCCc1ccc(OCc2coc(/C=C/c3ccc(F)cc3)n2)cc1 (stereo not drawn) [Compound B23, 3-(1-{4-[4-({2-[(E)-2-(4-fluorophenyl)ethenyl]-1,3-oxazol-4-yl}methoxy)phenyl]butyl}-1H-imidazol-2-yl)-1,2-propanediol] |
| 126 to 128 °C | – | – | OCC(O)Cc1nccn1CCCCc1ccc(OCc2coc(/C=C/c3ccc(F)cc3F)n2)cc1 (stereo not drawn) [Compound B26, 3-(1-{4-[4-({2-[(E)-2-(2,4-difluorophenyl)ethenyl]-1,3-oxazol-4-yl}methoxy)phenyl]butyl}-1H-imidazol-2-yl)-1,2-propanediol] |
| 89 to 90 °C | – | – | Fc1ccc(/C=C/c2nc(COc3cccc(CCCn4ccnn4)c3)co2)c(F)c1 [Compound B8, 1-{3-[3-({2-[(E)-2-(2,4-difluorophenyl)ethenyl]-1,3-oxazol-4-yl}methoxy)phenyl]propyl}-1H-1,2,3-triazole] |
| 102 to 104 °C | – | – | OCC(O)Cc1nccn1CCCc1cccc(OCc2coc(/C=C/c3ccc(C(F)(F)F)cc3)n2)c1 (stereo not drawn) [Compound B25, 3-[1-(3-{3-[(2-{(E)-2-[4-(trifluoromethyl)phenyl]ethenyl}-1,3-oxazol-4-yl)methoxy]phenyl}propyl)-1H-imidazol-2-yl]-1,2-propanediol] |
| 130 to 132 °C | – | – | OCCc1nccn1CCCCc1ccc(OCc2coc(/C=C/c3ccc(F)cc3)n2)cc1 [Compound B14, 2-(1-{4-[4-({2-[(E)-2-(4-fluorophenyl)ethenyl]-1,3-oxazol-4-yl}methoxy)phenyl]butyl)-1H-imidazol-2-yl)-1-ethanol] |
| 93 to 95 °C | – | – | OCCc1nccn1CCCCc1ccc(OCc2coc(/C=C/c3ccc(F)cc3F)n2)cc1 [Compound B19, 2-[1-[4-[4-[[2-[(E)-2-(2,4-difluorophenyl)ethenyl]-1,3-oxazol-4-yl]methoxy]phenyl]butyl]-1H-imidazol-2-yl]-1-ethanol] |
| 127 to 128 °C | – | – | OCCc1nccn1CCCCc1ccc(OCc2coc(/C=C/c3ccc(Cl)cc3)n2)cc1 [Compound B15, 2-[1-[4-[4-[[2-[(E)-2-(4-chlorophenyl)ethenyl]-1,3-oxazol-4-yl]methoxy]phenyl]butyl]-1H-imidazol-2-yl]-1-ethanol] |
| 142 to 143 °C | – | – | OCC(O)Cc1nccn1CCCCc1ccc(OCc2coc(/C=C/c3ccc(C(F)(F)F)cc3)n2)cc1 (stereo not drawn) [Compound B24, 3-[1-(4-(4-[(2-{(E)-2-[4-(trifluoromethyl)phenyl]ethenyl}-1,3-oxazol-4-yl)methoxy]phenyl]butyl)-1H-imidazol-2-yl]-1,2-propanediol] |
| 149 to 150 °C | – | – | OCCc1nccn1CCCCc1ccc(OCc2coc(/C=C/c3ccc(Br)cc3)n2)cc1 [Compound B16, 2-[1-[4-[4-[[2-[(E)-2-(4-bromophenyl)ethenyl]-1,3-oxazol-4-yl]methoxy]phenyl]butyl]-1H-imidazol-2-yl]-1-ethanol] |
| – | 1.9 µM | < 0.05 µM | Cc1cccc(/C=C/c2nc(COc3ccc(CCCCc4c[nH]c(CC(O)CO)n4)cc3)co2)c1 (stereo not drawn) [Compound B22, 3-(4-{4-[4-({2-[(E)-2-(3-methylphenyl)ethenyl]-1,3-oxazol-4-yl}methoxy)phenyl]butyl}-1H-imidazol-2-yl)-1,2-propanediol] |
| 94 to 96 °C | – | – | OCCc1nccn1CCCc1ccc(OCc2coc(/C=C/c3ccc(F)cc3F)n2)cc1 [Compound B20, 2-[1-[3-[4-[[2-[(E)-2-(2,4-difluorophenyl)ethenyl]-1,3-oxazol-4-yl]methoxy]phenyl]propyl]-1H-imidazol-2-yl]-1-ethanol] |
| 123 to 125 °C | – | – | OCC(O)Cc1nccn1CCCCc1ccc(OCc2coc(/C=C/c3c(F)cccc3F)n2)cc1 (stereo not drawn) [Compound B28, 3-[1-[4-[4-[[2-[(E)-2-(2,6-difluorophenyl)ethenyl]-1,3-oxazol-4-yl]methoxy]phenyl]butyl]-1H-imidazol-2-yl]-1,2-propanediol] |
| 92 to 94 °C | – | – | OCC(O)Cc1nccn1CCCc1cccc(OCc2coc(/C=C/c3ccc(F)cc3F)n2)c1 (stereo not drawn) [Compound B27, 3-(1-{3-[3-({2-[(E)-2-(2,4-difluorophenyl)ethenyl]-1,3-oxazol-4-yl}methoxy)phenyl]propyl}-1H-imidazol-2-yl)-1,2-propanediol] |
| 115 to 116 °C | – | – | FC(F)(F)c1ccc(/C=C/c2nc(COc3cccc(CCCn4ccnn4)c3)co2)cc1 [Compound B6, 1-(3-{3-[(2-{(E)-2-[4-(trifluoromethyl)phenyl]ethenyl}-1,3-oxazol-4-yl)methoxy]phenyl}propyl)-1H-1,2,3-triazole] |
